In ChEMBL document CHEMBL3046212, “Synthesis and immunostimulating activity of C-pseudonucleosides containing N-phenyl thiazolidin-4-one” (2013) one finds Activity data, which are given here for 14 compounds.

What all share (assay type): functional, Splenocyte
Test [1] in a line: Immunostimulatory activity in Balb/c mouse splenocytes assessed as increase in conA-induced T cell proliferation at 25 uM after 72 hrs by MTT assay relative to control.
Test [2] in a line: Immunostimulatory activity in Balb/c mouse splenocytes assessed as increase in conA-induced T cell proliferation at 100 uM after 72 hrs by MTT assay relative to control.
A short description of test [3]: Immunostimulatory activity in Balb/c mouse splenocytes assessed as increase in conA-induced T cell proliferation at 50 uM after 72 hrs by MTT assay relative to control.
Test [4] in a line: Immunostimulatory activity in Balb/c mouse splenocytes assessed as increase in conA-induced T cell proliferation at 10 uM after 72 hrs by MTT assay relative to control. Background: Tetrazolium assays rely on reduction of a dye to a coloured formazan, in cell work by metabolically active cells.
Test [5] is described as follows: Immunostimulatory activity in Balb/c mouse splenocytes assessed as increase in conA-induced T cell proliferation at 5 uM after 72 hrs by MTT assay relative to control.

As for `COc1cccc(N2C(=O)CS[C@@H]2[C@H]2O[C@H](CO)[C@@H](O)[C@@H]2O)c1`, the Activity in test [1] turned out to be 129.3%; in test [2], 125.4%; in test [3], 158.7%; in test [4], 165.1%; in test [5], 17.6%.
On the same counts, the results for `Cc1cccc(N2C(=O)CS[C@H]2[C@H]2O[C@H](CO)[C@@H](O)[C@@H]2O)c1` are 152.4%, 169.8%, 158.7%, 142.1% and 149.2%.
On to `Cc1cccc(N2C(=O)CS[C@@H]2[C@H]2O[C@H](CO)[C@@H](O)[C@@H]2O)c1`, for which the Activity is on record as 157.9% in test [1]; 160.3% in test [2]; 134.9% in test [3]; 155.6% in test [4]; 163.5% in test [5].
On the same counts, the results for `COc1cccc(N2C(=O)CS[C@H]2[C@H]2O[C@H](CO)[C@@H](O)[C@@H]2O)c1` are 156.3%, 162.7%, 147.6%, 134.1% and 146%.
As to `CCOC(=O)c1ccc(N2C(=O)CS[C@H]2[C@H]2O[C@H](CO)[C@@H](O)[C@@H]2O)cc1`, the Activity in test [1] was 161.9%; in test [2], 142.9%; in test [3], 136.5%; in test [4], 136.5%; in test [5] it was 153.2%.
With `CCOC(=O)c1ccc(N2C(=O)CS[C@@H]2[C@H]2O[C@H](CO)[C@@H](O)[C@@H]2O)cc1`, the Activity came out at 126.2% in test [1]; 180.2% in test [2]; 206.3% in test [3]; 177% in test [4]; 132.5% in test [5].
For `O=C1CS[C@H]([C@H]2O[C@H](CO)[C@@H](O)[C@@H]2O)N1c1ccc(Cl)cc1`, the Activity stood at 87.6% in test [1]; 107.1% in test [2]; 30.9% in test [3]; 91.5% in test [4]; 101.6% in test [5].
Take `Cc1ccc(N2C(=O)CS[C@H]2[C@H]2O[C@H](CO)[C@@H](O)[C@@H]2O)cc1`: the Activity in test [1] turned out to be 86.1%; in test [2], 95.2%; in test [3], 96.3%; in test [4], 83.7%; in test [5], 84.9%.
In the case of `Cc1ccc(N2C(=O)CS[C@@H]2[C@H]2O[C@H](CO)[C@@H](O)[C@@H]2O)cc1`, the Activity amounted to 95.6% in test [1]; 105.6% in test [2]; 104% in test [3]; 110% in test [4]; 91.2% in test [5].
Regarding `COc1ccc(N2C(=O)CS[C@H]2[C@H]2O[C@H](CO)[C@@H](O)[C@@H]2O)cc1`, the Activity in test [1] came out at 106.8%; in test [2], 99.2%; in test [3], 103.2%; in test [4], 106.8%.
Regarding `COc1ccc(N2C(=O)CS[C@@H]2[C@H]2O[C@H](CO)[C@@H](O)[C@@H]2O)cc1`, the Activity in test [1] came out at 97.2%; in test [2], 99.6%; in test [3], 93.6%; in test [4], 105.2%; in test [5], 108.8%.
As to `O=C1CS[C@@H]([C@H]2O[C@H](CO)[C@@H](O)[C@@H]2O)N1c1cccc(Cl)c1`, the Activity in test [1] is 130.3%; in test [2] it was 126%; in test [3], 121.5%; in test [4], 138.2%; in test [5], 139.7%.
Regarding `O=C1CS[C@H]([C@H]2O[C@H](CO)[C@@H](O)[C@@H]2O)N1c1cccc(Cl)c1`, the Activity was found to be 158.7% in test [1]; 144.4% in test [2]; 161.1% in test [3]; 155.6% in test [4]; 162.2% in test [5].
As for `O=C1CS[C@@H]([C@H]2O[C@H](CO)[C@@H](O)[C@@H]2O)N1c1ccc(Cl)cc1`, the Activity in test [1] is given as 102.2%; in test [2], 112.4%; in test [3], 112.3%; in test [4] it was 101.2%; in test [5], 100%.
